From patent US7189746B2, “Methods for promoting wound healing” (GliaMed, Inc., priority 2002, dated 2007)
pKd: −log10 of the molar value. “Also recorded” adds a separate entry of the source.

Key:
[1] = test system: hair follicles and sebaceous glands; experiment: Histology of adenexal structures and sebaceous cell volume after skin biopsy and topical treatment; format: in vivo, mice; settings: topical daily, 8 days
Experimental: (A) Eight days following full-thickness skin biopsies and daily treatment with either vehicle or a 1 μM solution of GM-284, the original biopsy sites were rebiopsied and stained with hemotoxylin and eosin. […] Micrographs from the two treatment groups were scanned, and the volume of sebaceous cells was measured in voxels (n=>300 cells per treatment group). The resulting data were binned by 3000-voxel increments.
Using the topical-application-following-skin-biopsy paradigm detailed above, the lateral aspects of the original lesions were rebiopsied 8 days after the original lesions. The tissues were immersion-fixed, dehydrated through step gradients of alcohols, stained with hemotoxylin and eosin, and mounted for microscopic analysis, all following standard protocols. It is known that skin wounds in rodents heal inwards, from the perimeter, converging at a central point (Cohen, Stress and wound healing. Acta Anat. (Basel), 103:134–41, 1979). Therefore, the lateral edges of the original lesions were selected for analysis because these areas of tissue had the greatest opportunity to regenerate under the experimental conditions.
The volumes of the cells of the sebaceous glands were determined by scanning micrographs taken from animals treated with either GM-284 or vehicle for 8 days, and measuring cell size with the NIH Image program. […] There was an absence of smaller sebaceous cells in the GM-284 treatment group, and an absence of larger cells in the vehicle-treated group. […] Thus, given the cellular expansion in all three of these dermal compartments, it is likely that GM-284 acts at the level of the common stem cell.

epidermis of intact skin = experiment: Topical treatment of intact shaved skin, with recovery period; format: in vivo
Source text: Either GM-284 or vehicle was applied to the dorsal skin on both sides of the animals, daily for 2 weeks. At that time, a 5-mm biopsy was taken from only one side, and all treatment was withheld. After an additional 2-week recovery period, a 5-mm biopsy was taken from the contralateral, intact side. […] 20×magnification
In order to test these effects, the inventor shaved the dorsal fur from over the hindquarters, bilaterally, and tattooed ˜5-mm circles on the skin. Either GM-284 or vehicle was applied daily, to both sides of the animals, for 2 weeks. After that time, a 5-mm biopsy was taken from only one side of each animal, and all treatment was withheld. After an additional 2-week “recovery period”, a 5-mm biopsy was taken from the intact side of each animal.

peripheral nerves = experiment: Peripheral nerve regeneration after mechanical transection; format: in vivo; settings: mechanical transection of peripheral nerves; earlier studies of the inventor
surgical wounds = experiment: Healing of surgical wounds under daily gavage (systemic treatment); format: in vivo, mice
Source text: During these studies, the inventor serendipitously observed that the surgical wounds of animals treated systemically with GM-284 appeared dramatically different from those of either vehicle- or FK506-treated mice. […] Given the biochemical properties of GM-284, and the clinical uses of FK506 as a topical medication, the inventor investigated the ability of GM-284 to act as a healing accelerant when applied topically to full-thickness skin biopsies in mice.
These studies required surgical exposure of the right lower quadrant of all study animals. Following exposure of the sciatic nerve from the sciatic notch to the knee, and manipulation of the nerve, the muscle and overlaying skin were closed with suture material. Each animal was subsequently treated with a daily gavage of either GM-284 (5 mg/kg), FK506 (5 mg/kg), or methylcellulose vehicle alone.

[2] = test system: human-foreskin keratinocytes; experiment: Proliferation of cultured human-foreskin keratinocytes; format: cell-based
Experimental: Human keratinocytes were thawed, then either grown in the presence of increasing concentrations of GM-284, or grown in 5 μM FeSO4 as a positive control.
As detailed above, keratinocyte proliferation is influenced by a number of factors, including innervation (Hsieh and Lin, Modulation of keratinocyte proliferation by skin innervation. J. Invest. Dermatol., 113:579–86, 1999) and growth-factor treatment (Castagnino et al., Neu differentiation factor/heregulin induction by hepatocyte and keratinocyte growth factors. Oncogene, 19:640–48, 2000; and reviewed by Werner and Smola, Paracrine regulation of keratinocyte proliferation and differentiation. Trends Cell Biol., 11: 143–46, 2001). Thus, by culturing human-foreskin keratinocytes with increasing concentrations of GM-284, the inventor investigated the possibility that GM-284 was able to influence keratinocyte growth. […] This type of drug-dependent inhibition is consistent with the inventor's previous observation that a higher concentration of GM-284 blocks gene expression that is induced at a lower drug concentration (data not shown).

neuregulin-α = experiment: Neuregulin-α expression in keratinocytes of unwounded skin in situ; format: in vivo
Source text: FIG. 8 illustrates that GM-284 alters neuregulin gene expression. […] As expected, unwounded, vehicle-treated keratinocytes strongly express neuregulin-α (top panel).
As expected, unwounded, vehicle-treated keratinocytes strongly expressed neuregulin-α (FIG. 8, top panel).

[3] = test system: nerve fibers of injured skin; experiment: Reinnervation and remyelination of healing skin (MBP and neuron-specific β-tubulin staining); format: in vivo, mouse; settings: 8 days of treatment after biopsy
Source text: FIG. 6 illustrates that GM-284 induces rapid reinnervation of injured skin. (A) The inventor examined innervation of surgically damaged skin (biopsy) following 8 days of treatment with either GM-284 or vehicle. The skin sections were stained with an antibody that recognizes myelin basic protein (MBP). […] In contrast, healing skin which had been treated with vehicle alone still had no myelinated fibers, nor did the Langerhans cells appear to have any organization relative to the epidermis (right panel). (B) Unmyelinated fibers also innervate the skin, where the fibers extend into the epidermis. […] No such fibers were found in the vehicle-treated controls.
As shown above, GM-284 induces rapid healing of wounds; it does so, in part, by influencing the proliferation of cells within the dermis and epidermis. In addition, this compound has profound effects on the regeneration of peripheral nerves. The inventor has previously shown that, following crushing-nerve injury, GM-284 enhances nerve regeneration, acting on both the axon and the Schwann cell (data not shown). To investigate whether GM-284 also enhances sensory-nerve regeneration into skin following wounding, the inventor examined innervation of skin biopsies after 8 days of treatment with either GM-284 or vehicle. […]

facial nerve = experiment: Whisker movement after unilateral facial nerve compression; format: in vivo; settings: rats, versus control
recombinant FKBP52 = target: T1, recombinant FKBP52 (Homo sapiens, UniProt Q02790); experiment: Binding affinity for recombinant FKBP52 by solution-phase tryptophan fluorescence (QTFS); settings: read-out: disassociation constant (kd), binding affinity for recombinant FKBP52
T1 sequence (Q02790 1-459): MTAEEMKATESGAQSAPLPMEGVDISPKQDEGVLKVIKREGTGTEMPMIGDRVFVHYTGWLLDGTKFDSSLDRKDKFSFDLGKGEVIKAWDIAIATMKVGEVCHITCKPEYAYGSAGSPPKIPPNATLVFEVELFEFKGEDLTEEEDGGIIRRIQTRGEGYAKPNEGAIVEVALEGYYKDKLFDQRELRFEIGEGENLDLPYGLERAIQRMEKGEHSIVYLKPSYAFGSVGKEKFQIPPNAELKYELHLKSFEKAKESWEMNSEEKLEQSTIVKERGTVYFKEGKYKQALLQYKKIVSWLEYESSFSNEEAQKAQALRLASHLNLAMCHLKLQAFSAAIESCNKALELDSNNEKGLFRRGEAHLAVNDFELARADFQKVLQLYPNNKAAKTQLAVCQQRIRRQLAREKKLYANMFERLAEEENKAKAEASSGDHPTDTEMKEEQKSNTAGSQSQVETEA
Source text: Accordingly, in one embodiment of the present invention, the immunophilin ligand is FK506 or an FK506 analogue or derivative. As used herein, an “FK506 derivative” is a chemical substance derived from FK506, either directly or by modification, truncation, or partial substitution. FK506 and its analogues and derivatives may be produced synthetically. The FK506 derivative for use in the present invention may be nonimmunosuppressive. In a preferred embodiment of the present invention, the nonimmunosuppressive FK506 derivative is GM-284. This novel compound is a small molecule that effects transcriptional change in Schwann cells, and promotes wound healing and regeneration of epithelial tissue and nervous tissue, as described below. […] The structure of GM-284 is depicted in FIG. 9.

5-mm skin biopsies = experiment: Closure of 5-mm skin biopsy wounds under daily topical treatment; format: in vivo, mice
Experimental: The foregoing results also raised the possibility that GM-284 might show similar effects if administered topically, directly to the surgical site. To investigate this possibility, 10 retired breeders—5 male mice and 5 female mice—were prepared for surgery, and were subjected to 5-mm skin biopsies using a disposable biopsy punch. After achieving hemostasis, the wounds were treated immediately with topical application of either GM-284 or vehicle, or received no treatment at all. The treatment was repeated daily.
During the experimental period, the wounds were photographed daily, and the photographs were scanned for […]. The open area of each wound was quantified using an image-analysis program, NIH Image.

epidermis = experiment: Epidermal thickness after full-thickness skin biopsy and topical treatment; format: in vivo, mice; settings: topical daily for 8 days in DMSO-based vehicle, rebiopsy, H&E
Experimental: FIG. 4 illustrates that topical treatment with GM-284 increases epidermal thickness in vivo. Eight days after full-thickness skin biopsies and daily treatment with vehicle, FK506, or GM-284, the original biopsy sites were rebiopsied and stained with hemotoxylin and eosin.
To examine this possibility, 5-mm, full-skin thickness biopsies were taken from the hindquarters of both male and female ICR retired breeders. The wounds were treated daily, for 8 days, with topical administration of either the DMSO-based vehicle, or FK506 or GM-284 in the vehicle. Thereafter, the original biopsy site was rebiopsied. […] In contrast, the epidermis of the GM-284-treated animals was much thicker, and appeared to be much more cellular, than the epidermis of animals under the other two conditions (FIG. 4, panel c).

Which results are given for `CCC(C)(C)C(=O)C(=O)N1CCC[C@H]1c1nnc([C@@H]2CCCN2C(=O)C(=O)C(C)(C)CC)o1` [GM-284]?
number of hair follicles or sebaceous glands ([1]; 1 μM solution): no net increase in the number of hair follicles; hair follicle size and cellularity (FIG. 5A) ([1]; 1 μM solution, versus vehicle): large increase in the width and cellularity of the basal aspects of the hair follicles; also recorded: overall increase in hair-follicle size; sebaceous gland size and cell number (FIG. 5A) ([1]; 1 μM solution, versus vehicle): much rounder, larger, and fuller than those of the controls; also recorded: increase in the size of sebaceous glands; sebaceous cell volume, binned by 3000-voxel increments (FIG. 5B) ([1]; >300 cells per group, versus vehicle): marked shift to the right; also recorded: absence of cells smaller than 3000 voxels; epidermal hypertrophy after recovery period (FIG. 7, lower) (epidermis of intact skin; 2 weeks treatment, then 2 weeks without treatment): completely reversed; epidermal thickness of intact skin (FIG. 7, top) (epidermis of intact skin; topical daily for 2 weeks): resulted in epidermal hypertrophy; axonal regeneration and myelination after nerve transection (peripheral nerves): enhances axonal regeneration and induces hypermyelination; appearance and closure of surgical wounds (surgical wounds; daily gavage 5 mg/kg, skin and muscle entered, blinded observer): less erythemia and more rapid closure; rate of wound healing versus controls (surgical wounds; mice treated systemically, controls vehicle or FK506): healed at approximately twice the rate as the controls; healing of surgical wounds, only the skin entered (surgical wounds; muscle and overlying fascia left intact): same improved healing characteristics; increase in rate of keratinocyte proliferation ([2]; 1 μM, after 14 days of treatment): more than 150%; proliferative index of keratinocytes (FIG. 3) ([2]; 1 μM, after first passage and reseeding): doubling of the proliferative index; keratinocyte growth rate at 10 μM compared with 1 μM ([2]; 10 μM): completely ablated the pro-proliferative activity; keratinocyte neuregulin-α expression (FIG. 8) (neuregulin-α; 2 weeks of topical treatment, unwounded skin): completely downregulated neuregulin-α expression; keratinocyte neuregulin-α expression after recovery (neuregulin-α; skin allowed to recover for 2 weeks, data not shown): keratinocyte expression of neuregulin-α was restored; regeneration of myelinated (MBP-positive) fibers in injured skin (FIG. 6A) [3]: regained its pre-injury histology, with new, myelinated fibers running parallel to the epidermis; regeneration of unmyelinated fibers into the epidermis (FIG. 6B) [3]: promotes regeneration of naked axons into the epidermis; restoration of whisker movement (facial nerve): more rapidly restore whisker movement compared to control; pKd (recombinant FKBP52): 6.86; granulation of wound edges (5-mm skin biopsies; topical daily, D3 and D9): better granulated than the controls; closure rate, open wound area by NIH Image (FIG. 2) (5-mm skin biopsies; topical daily, day 5): large difference in the closure rates; open wound size versus control groups, NIH Image (FIG. 2) (5-mm skin biopsies; topical daily, day 9): approximately one-third the size of those of the control groups; open wound size versus control groups, NIH Image (FIG. 2) (5-mm skin biopsies; topical daily, day 9, listed as GM284): approximately as completely healed as that of the two control groups; rate of wound closure, open wound area by NIH Image (5-mm skin biopsies; topical daily, third treatment day): closed approximately twice as fast as the control groups; wound closure versus control groups (FIG. 1) (5-mm skin biopsies; topical, once daily, day 3): showed improvement by 3 days; also recorded: significantly more closed than the control groups; wound closure (FIG. 1) (5-mm skin biopsies; topical, once daily, day 9): virtually closed by the ninth day; epidermal thickness versus vehicle (FIG. 4) (epidermis): marked increase in epidermal thickness; also recorded: much thicker
